Experimental data taken from US9340545B2, “Quinazolin-4 (3H)—one derivatives used as P13 kinase inhibitors” (Respivert Limited, priority 2011, dated 2016).

Test system: cigarette smoke-induced cell accumulation in murine BALF
Experiment: Cigarette smoke model
Type: in vivo, A/J mice

Row | SMILES | Activity in the cigarette smoke model (0.3-10 mg/kg, p.o.) | Anti-inflammatory effect as monotherapy in the cigarette smoke model (monotherapy, at the dose used for co-administration (FP dosed at 50 μg/mL))
1 | C[C@@H]1C[C@H]2[C@@H]3CCC4=CC(=O)C=C[C@]4(C)[C@@]3(F)[C@@H](O)C[C@]2(C)[C@@]1(O)C(=O)CO [dexamethasone] | inactive | –
2 | CCC(=O)O[C@]1(C(=O)SCF)[C@H](C)C[C@H]2[C@@H]3C[C@H](F)C4=CC(=O)C=C[C@]4(C)[C@@]3(F)[C@@H](O)C[C@@]21C [fluticasone propionate] | – | lacks any significant effect
